# “Also recorded” adds a separate entry of the source.
# How the values were obtained:
# GABA-A receptor = details: cited from earlier work
# Scn1a+/− mice = experiment: Three-chamber social preference test; assay type: in vivo
# Description: The mouse was allowed to freely explore each chamber. […] The recorded video file was further analyzed by off-line video tracking software (ETHOVISION™ XT 7.0). […] All data shown are means±s.e.m. and analyzed using two-way ANOVA with Bonferroni's post hoc analysis and one-way ANOVA with Tukey's post hoc analysis.
# Oral administration is specifically contemplated for the methods described herein, and is well known for both benzodiazepines and non-BDZ GABA-A enhancers as described herein.
# (§1) The test was performed as described previously (Han et al., 2012) with minor modifications. The threechamber apparatus is a non-transparent Plexiglas box (30×60 cm) with two transparent partitions that make left, center, and right chambers (30×20 cm). In the first 10-min session, a test mouse was placed in the center of the empty three-chamber unit to habituate the test mouse. The mouse was allowed to freely explore each chamber. In the second 10-min session, an age- and gender-matched same strain mouse that had never been exposed to the test mouse, was placed in one of the two wire cages. The empty wire cage as an inanimate object cue was placed on the other side. Then, the test mouse was placed again in the center, and allowed to freely explore the chamber for 10 min. Time spent in each chamber, and time spent within a 5 cm radius proximal to each wire cage, as a close interaction were measured by the videotracking software (EthoVision XT 8.5, Noldus Technology). All data shown are means±s.e.m. and analyzed using two-way ANOVA with Bonferroni's post hoc analysis and one-way ANOVA with Tukey's post hoc analysis.
# (§2) L-838,417, and DMCM (Sigma), dissolved in 100% DMSO (sterile, Sigma) was diluted in PBS (the final concentration of DMSO was ranged from 0.005% to 0.1%). Drugs were administered by an intraperitoneal injection in a volume of […] 30 min before the behavioral tests.
# C57BL/6J mice [1] = experiment: Context-dependent fear conditioning test; assay type: in vivo
# Description: (§3) The contextual fear-conditioning chamber was a square arena (25×25 cm) with clear PLEXIGLAS™ walls and a metal grid floor connected to a circuit board that delivered shocks to the metal grid (COULBOURN INSTRUMENTS™). An analog camera was attached on top of the chamber. The camera and the circuit board were connected to a personal computer, and its software (FREEZE FRAME™ 2.0, ACTIMETRICS™) controlled the circuit and recorded the data. The chamber was cleaned with 70% ethanol and wiped with paper towels before each session. In the habituation session, a test mouse was placed in the chamber and allowed to explore for 2 min^66-69. Immediately after habituation, the test mouse received a single mild foot shock (2 s, 0.5 mA). After staying in the chamber one more min, the mouse was removed from the chamber. For the 30-min short-term memory test, the mouse was returned to the context 30 min after the end of the training session. For 24-hr long-term memory test, the mouse was returned to the context 24 hr after the training session. The movement of mice was also recorded by a USB webcam (LIFECAM™ HD-6000, MICROSOFT™) and PC-based video capture software (WINAVI™ Video Capture, ZJ MEDIA DIGITAL TECHNOLOGY™) for 2 min. The recorded video file was further analyzed by off-line video tracking software (ETHOVISION™ XT 7.0, NOLDUS TECHNOLOGY™). The freezing scores were calculated by dividing the test session into 1 min bouts and averaging together all 2 min for each animal. All data shown.
# (§4) Freezing behavior is defined as the period during which the velocity of the test mouse is less than 1.75 cm/s, and non-freezing behavior is defined as the period during which the velocity of the mouse is greater than 2 cm/s.
# BTBR mice [2] = experiment: Context-dependent fear conditioning test; assay type: in vivo
# Description: as §3, §4
# C57BL/6J mice [3] = experiment: Three-chamber social interaction test; assay type: in vivo; details: for social interaction preference, Pre/CLZ/Post protocol: low dose (0.05 mg/kg), 0.05 mg/kg
# Description: The mouse was allowed to freely explore each chamber.
# BTBR mice [4] = experiment: Three-chamber social interaction test; details: for social interaction deficit: 0.05 mg/kg (low dose) 30 min before test; for effect on social interaction at doses above the maximally effective dose: higher doses; for dose of maximal effect on social interaction: i.p., 30 min before test; for social interaction (time with stranger mouse, close interaction), dose series: single i.p. injection 30 min before test, low/increasing doses
# Method: In the three-chamber test, a test mouse is placed in the center chamber, and the preference of the test mouse for interaction with an inanimate object (a small empty cage) in the left chamber vs. a stranger mouse in an identical cage in the right chamber using a digital camera and quantitative video-tracking analysis.
# as §1, §2
structure (smiles),measurement,setting,value
"Cn1ncnc1COc1nn2c(-c3cc(F)ccc3F)nnc2cc1C(C)(C)C [L-838,417]",Effect at GABA receptor,"GABA-A receptor; Table 2, exemplary SS-PAMs","Partial agonist Selective for α2, α3 (and possibly α5) subunits"
same,social interactions in three-chamber test,"Scn1a+/− mice; low doses, narrow dose range (FIGS. 41N, 41O)",improves social interactions
same,memory of the spatial context,"C57BL/6J mice [1]; 0.05 mg/kg L838,417",no effect
same,long-term (24 h) memory,BTBR mice [2]; 0.05 mg/kg,improved
same,short-term (30 min) memory,BTBR mice [2]; 0.05 mg/kg,improved
same,memory of the spatial context,BTBR mice [2]; 0.05 mg/kg 30 min before training session and 24-h memory session,substantially improved
same,spatial learning behavior (FIG. 13B legend),"BTBR mice [2]; 0.05 mg/kg, legend body prints DS mice, title BTBR mice",substantially rescued
same,"social behavior, dose series","C57BL/6J mice [3]; L-838,417 / zolpidem (FIGS. 45I, 45J)",not changed; also recorded: did not change
same,social interaction deficit,BTBR mice [4],rescued
same,social behavior (close interaction),BTBR mice [4]; 0.5 mg/kg,disappeared
same,dose at low point of time in the chamber with the inanimate object,BTBR mice [4]; biphasic dose-response,0.05 mg/kg
same,effect on social interaction at doses above the maximally effective dose,BTBR mice [4],lost when the dose increased
same,effect on social interaction at doses above the maximally effective dose,"BTBR mice [4]; listed as L838,417",reduced response
same,dose of maximal effect on social interaction,BTBR mice [4],0.05 mg/kg
same,time of interaction with the inanimate object,BTBR mice [4]; increasing doses,decrease
same,total movement during the three-chamber test at high dose,"BTBR mice [4]; mouse, in vivo",tended to increase
same,"social interaction (time with stranger mouse, close interaction), dose series",BTBR mice [4],increased
same,"social interaction (time with stranger mouse, close interaction), dose series","BTBR mice [4]; listed as L818,417",progressively increase
O=C1CN=C(c2ccccc2Cl)c2cc([N+](=O)[O-])ccc2N1 [Clonazepam],Effect at GABA-A receptor,"GABA-A receptor; Table 1, exemplary benzodiazepines",Agonist Long- acting
same,"social interaction, 3-chamber social preference test","Scn1a+/− mice; single i.p. 0.0625 mg/kg 30 min before test, listed as CLZ, 0.0625 mg/kg",completely rescued; also recorded: completely restored; also recorded: completely recovered
same,cognitive changes in fear conditioning,"C57BL/6J mice [1]; clonazepam, any dose (0-0.1 mg/kg)",no cognitive changes
same,short-term and long-term memory,BTBR mice [2]; 0.0125 mg/kg,no significant effects
same,long-term (24 h) memory,BTBR mice [2]; 0.05 mg/kg,improved
same,short-term (30 min) memory,BTBR mice [2]; 0.05 mg/kg,improved
same,short-term and long-term memory,BTBR mice [2]; 0.1 mg/kg,no significant effects
same,context-dependent fear memory on Day 1 and Day 14,BTBR mice [2]; daily 0.05 mg/kg for 14 days,improved
same,tolerance to effects on cognitive deficit,BTBR mice [2]; daily 0.05 mg/kg for 14 days,does not cause tolerance
same,spatial learning in context-dependent fear conditioning,BTBR mice [2]; low-dose CLZ (FIG. 10),rescued
same,time of interaction with stranger mouse vs. novel object,C57BL/6J mice [3]; any of the test doses (FIG. 39C),unaffected
same,social interactions / close interaction,"C57BL/6J mice [3]; clonazepam single injection, 0-0.1 mg/kg",not altered; also recorded: no effect
same,"social interaction preference, Pre/CLZ/Post protocol",C57BL/6J mice [3],not changed; also recorded: None of these treatments had any significant effect
same,"social interaction preference, Pre/CLZ/Post protocol",C57BL/6J mice [3]; listed as CLZ,does not significantly alter
same,social interaction deficit,BTBR mice [4],reversibly rescued; also recorded: improved
same,social interaction deficit,BTBR mice [4]; listed as CLZ,recover their preference
same,social interactions on Day 1 of repeated treatment,BTBR mice [4]; 0.05 mg/kg i.p. daily,significantly increased
same,social interactions after 14 days of repeated treatment,BTBR mice [4]; 0.05 mg/kg i.p. daily for 14 days,fully retained and even increased
same,sedation / total distance moved during the three-chamber test,BTBR mice [4]; dose range up to 0.5 mg/kg (clonazepam: test doses),did not cause sedation; also recorded: no sedation
same,improvement of social deficit: time of interaction with stranger mouse vs. novel object,BTBR mice [4]; dose series (FIG. 39D),strikingly dose-dependent
same,increase of time spent in the chamber containing the stranger mouse,BTBR mice [4]; doses from 0.00625 mg/kg to 0.05 mg/kg i.p.,approximately 2.5 fold
same,effect on social interaction at doses above the maximally effective dose,BTBR mice [4],not observed; also recorded: lost at higher doses
same,dose of maximal effect on social interaction,BTBR mice [4],0.05 mg/kg
same,tolerance to rescue of social interaction behavior,"BTBR mice [4]; repeated 0.05 mg/kg, 14 days",does not elicit tolerance
same,"social interaction (time with stranger mouse, close interaction), dose series",BTBR mice [4],rescued; also recorded: increased
